Source: the supplement of paper PMC11451515

What was measured:
NOMO1 [1] = experiment: AUC of viability dose-response curve (% viability x log10 dose units); higher = less sensitive; details: 48 h
How it was run: (§1)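 Seeding of medium-adapted leukemia cells was at 500 or 1000 cells/well in 1536-well plates, followed by 48 h at 37°C with library compounds in DMSO at 11 threefold doses from 47 μM to 0.79 nM. CellTiter-Glo One luminescence was normalised per plate to DMSO and cell-free wells and fitted as a four-parameter log-logistic function of log10 dose. Area under the curve was integrated by trapezoidal rule, with curves exceeding full viability scaled and curves failing quality control removed.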

SEM cells = experiment: as above; details: 48 h
How it was run: as §1

NOMO1 [2] = experiment: cell viability relative to DMSO control; higher = less cytotoxic; details: RPMI 5 mM glucose + 10% dialyzed FBS, 48 h
How it was run: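 NOMO1 or SEM cells were plated at 500 cells/well and P12-Ichikawa cells at 1000 cells/well in 1536-well plates (5 μl), after each leukemia line had been adapted for at least four passages in each medium. Pin dosing delivered library compounds in DMSO at 11 threefold concentrations, 47 μM to 0.79 nM. CellTiter-Glo One luminescence was read after 48 h at 37°C. Viability is reported as a per-plate percentage of DMSO wells, with cell-free wells as background.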

P12-Ichikawa = experiment: AUC of viability dose-response curve (% viability x log10 dose units); higher = less sensitive; details: 48 h
How it was run: as §1

[3] = RPMI 5 mM glucose + 10% dialyzed FBS

SMILES: Cc1c(C(=O)NN2CCCCC2)nn(-c2ccc(Cl)cc2Cl)c1-c1ccc(Cl)cc1
- AUC of viability dose-response curve (NOMO1 [1]; HPLM + 10% dialyzed FBS): 325
- AUC of viability dose-response curve (NOMO1 [1]; RPMI 5 mM glucose + 10% FBS): 303
- AUC of viability dose-response curve (NOMO1 [1]; [3]): 337
- AUC of viability dose-response curve (SEM cells; HPLM + 10% dialyzed FBS): 473
- AUC of viability dose-response curve (SEM cells; RPMI 5 mM glucose + 10% FBS): 455
- AUC of viability dose-response curve (SEM cells; [3]): 469
- cell viability (NOMO1 [2]; 0.000781 µM): 122%
- cell viability (NOMO1 [2]; 0.00234 µM): 120%
- cell viability (NOMO1 [2]; 0.00702 µM): 125%
- cell viability (NOMO1 [2]; 0.0211 µM): 143%
- cell viability (NOMO1 [2]; 0.0632 µM): 128%
- cell viability (NOMO1 [2]; 0.19 µM): 138%
- cell viability (NOMO1 [2]; 0.569 µM): 76.3%
- cell viability (NOMO1 [2]; 1.71 µM): 46.8%
- cell viability (NOMO1 [2]; 5.12 µM): 32.8%
- cell viability (NOMO1 [2]; 15.4 µM): 28.1%
- cell viability (NOMO1 [2]; 46.1 µM): 36%

SMILES: S=C1N\C=N/C2=C1[NH]C=N2
- AUC of viability dose-response curve (NOMO1 [1]; HPLM + 10% dialyzed FBS): 425
- AUC of viability dose-response curve (NOMO1 [1]; RPMI 5 mM glucose + 10% FBS): 446
- AUC of viability dose-response curve (NOMO1 [1]; [3]): 360
- AUC of viability dose-response curve (SEM cells; HPLM + 10% dialyzed FBS): 445
- AUC of viability dose-response curve (SEM cells; RPMI 5 mM glucose + 10% FBS): 409
- AUC of viability dose-response curve (SEM cells; [3]): 360
- AUC of viability dose-response curve (P12-Ichikawa; HPLM + 10% dialyzed FBS): 404
- AUC of viability dose-response curve (P12-Ichikawa; RPMI 5 mM glucose + 10% FBS): 377
- AUC of viability dose-response curve (P12-Ichikawa; [3]): 343

SMILES: COc1ccc(-n2nc(C(N)=O)c3c2C(=O)N(c2ccc(N4CCCCC4=O)cc2)CC3)cc1
- AUC of viability dose-response curve (NOMO1 [1]; HPLM + 10% dialyzed FBS): 313
- AUC of viability dose-response curve (NOMO1 [1]; RPMI 5 mM glucose + 10% FBS): 270
- AUC of viability dose-response curve (NOMO1 [1]; [3]): 300
- AUC of viability dose-response curve (SEM cells; HPLM + 10% dialyzed FBS): 464
- AUC of viability dose-response curve (SEM cells; RPMI 5 mM glucose + 10% FBS): 432
- AUC of viability dose-response curve (SEM cells; [3]): 442
- AUC of viability dose-response curve (P12-Ichikawa; HPLM + 10% dialyzed FBS): 371
- AUC of viability dose-response curve (P12-Ichikawa; RPMI 5 mM glucose + 10% FBS): 370
- AUC of viability dose-response curve (P12-Ichikawa; [3]): 381

SMILES: NC\1=N\C(=O)N(\C=C1)[C@@H]2O[C@H](CO)[C@@H](O)[C@H]2O
- AUC of viability dose-response curve (NOMO1 [1]; HPLM + 10% dialyzed FBS): 417
- AUC of viability dose-response curve (NOMO1 [1]; RPMI 5 mM glucose + 10% FBS): 463
- AUC of viability dose-response curve (NOMO1 [1]; [3]): 466
- AUC of viability dose-response curve (SEM cells; HPLM + 10% dialyzed FBS): 452
- AUC of viability dose-response curve (SEM cells; RPMI 5 mM glucose + 10% FBS): 443
- AUC of viability dose-response curve (SEM cells; [3]): 438
- AUC of viability dose-response curve (P12-Ichikawa; HPLM + 10% dialyzed FBS): 467
- AUC of viability dose-response curve (P12-Ichikawa; RPMI 5 mM glucose + 10% FBS): 471
- AUC of viability dose-response curve (P12-Ichikawa; [3]): 469
